Assay results as given in patent EP4603105A1, “PHARMACEUTICAL COMPOSITION CONTAINING CYCLIC COMPOUND HAVING SELECTIVE KRAS INHIBITORY EFFECT AGAINST HRAS AND NRAS” (CHUGAI SEIYAKU KABUSHIKI KAISHA, priority 2022, dated 2024).
Where a SMILES comes first, the peptide text is derived from it. Bridges are numbered along the chain shown (N, C = ends). [ ]: non-standard residue; d: D form. The star is where a group is joined. hPhe(3-Cl-4-CF3) = N[C@@H](CCc1ccc(C(F)(F)F)c(Cl)c1)C(=O)O; NPrPhe(4-CF3) = CCCN[C@@H](Cc1ccc(C(F)(F)F)cc1)C(=O)O; Morpholine(3S-CO) = O=C(O)[C@@H]1COCCN1; NMeGly(cPent) = CN[C@H](C(=O)O)C1CCCC1; NMeD = CN[C@@H](CC(=O)O)C(=O)O; NMeL = CN[C@@H](CC(C)C)C(=O)O; Morpholide = C1CN(*)CCO1; Ac5c = NC1(C(=O)O)CCCC1; NEtG = CCNCC(=O)O; Sar = CNCC(=O)O

Key:
[1] = test system: human lung cancer strain NCI-H441; format: cell-based
Summary of the method: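 Step one: dispense the test compound in serial DMSO dilutions. Step three: add the reagent and measure […].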

[2] = target: GDP-bound NRAS wild-type protein (Homo sapiens, UniProt P01111); assay: Binding to NRAS by surface plasmon resonance (SPR), KD and KD ratio to KRAS
Summary of the method: (§1)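 Biotinylated GDP-bound RAS was captured at about 100–300 RU. Running buffer: HBS pH 7.4, 10 mM MgCl2, 10 µM GDP, 1 mM DTT, 0.01% Tween 20, 4% DMSO.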

HRAS wild-type protein = HRAS wild-type protein (Homo sapiens, UniProt P01112); assay: Binding to HRAS by surface plasmon resonance (SPR), KD and KD ratio to KRAS
Summary of the method: as §1

[3] = ratio of the KD value with respect to GDP-bound NRAS wild-type protein to the KD value with respect to KRAS
[4] = ratio of the KD value with respect to HRAS wild-type protein to the KD value with respect to KRAS
[5] = ratio of KD for GDP-bound NRAS wild-type protein to KD for KRAS
[6] = ratio of KD for HRAS wild-type protein to KD for KRAS

Chain of GDP-bound NRAS wild-type protein (P01111 whole entry): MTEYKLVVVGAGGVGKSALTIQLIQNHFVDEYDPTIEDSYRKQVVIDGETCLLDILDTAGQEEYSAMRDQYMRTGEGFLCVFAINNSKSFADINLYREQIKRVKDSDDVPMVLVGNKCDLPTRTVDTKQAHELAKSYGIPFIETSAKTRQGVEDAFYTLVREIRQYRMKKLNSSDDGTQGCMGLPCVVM
Chain of HRAS wild-type protein (P01112 whole entry): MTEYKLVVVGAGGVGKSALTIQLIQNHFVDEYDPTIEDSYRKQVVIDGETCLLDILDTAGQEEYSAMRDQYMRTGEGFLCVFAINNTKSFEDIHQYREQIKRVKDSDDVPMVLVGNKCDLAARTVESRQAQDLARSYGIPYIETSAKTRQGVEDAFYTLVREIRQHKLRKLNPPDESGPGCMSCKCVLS

| IC50 [1] [nM] | SMILES | NRAS /KRAS [2, 3] | HRAS /KRAS (HRAS wild-type protein; [4]) | NRAS /KRAS ([2]; ratio of KD value for GDP-bound NRAS wild-type protein to KD value for KRAS (SPR)) | HRAS /KRAS (HRAS wild-type protein; ratio of KD value for HRAS wild-type protein to KD value for KRAS (SPR)) | NRAS /KRAS [2, 5] | HRAS /KRAS (HRAS wild-type protein; [6]) |
| --- | --- | --- | --- | --- | --- | --- | --- |
| 24 | CCO[C@@H]1C[C@H]2C(=O)NC3(CC(C)(C)C3)C(=O)N(C)[C@@H](C3CCCC3)C(=O)N(C)[C@H](C(=O)N(CC)CC)CC(=O)N(C)[C@@H](CC)C(=O)N[C@@H]([C@@H](C)CC)C(=O)N(C)CC(=O)N(C)[C@H]3C/C=C\CCN(C3=O)[C@@H](Cc3ccc(C)cc3)C(=O)N(C)CC(=O)N[C@@H](CCc3ccc(C(F)(F)F)c(Cl)c3)C(=O)N2C1 [PP1883] |  |  | A (a compound having 10 or more and less than 20 is denoted as A) | A (a compound having 10 or more and less than 20 is denoted as A) |  |  |
| 16 | CCCN(C)C(=O)[C@@H]1CC(=O)N(C)[C@@H](C(C)C)C(=O)N[C@@H]([C@@H](C)CC)C(=O)N(C)CC(=O)N(C)[C@H]2C/C=C\CCN(C2=O)[C@@H](Cc2ccc(C(F)(F)F)cc2)C(=O)N(C)CC(=O)N[C@@H](CCc2cc(F)c(C(F)(F)F)c(F)c2)C(=O)N2C[C@@H](C)C[C@H]2C(=O)NC2(CCC2)C(=O)N(C)[C@@H](C2CCCC2)C(=O)N1C [PP2079] | A (a compound having 10 or more and less than 20 is denoted as A) | A (a compound having 10 or more and less than 20 is denoted as A) |  |  |  |  |
| 47.3 | CCC[C@H]1C(=O)N[C@@H]([C@@H](C)CC)C(=O)N(C)CC(=O)N(C)[C@H]2C/C=C\CCN(C2=O)[C@@H](Cc2ccc(C(F)(F)F)cc2)C(=O)N(C)CC(=O)N[C@@H](CCc2ccc(Cl)c(OC)c2)C(=O)N2C[C@H](OCC)C[C@H]2C(=O)NC2(CC(C)(C)C2)C(=O)N(C)[C@@H](C(CC)CC)C(=O)N(C)[C@H](C(=O)N(C)C)CC(=O)N1C [PP2789] |  |  |  |  | AA (a compound having 20 or more is denoted as AA) | A (a compound having 10 or more and less than 20 is denoted as A) |
| 5.7 | CCO[C@@H]1C[C@H]2C(=O)NC3(CC(C)(C)C3)C(=O)N(C)[C@@H](C(CC)CC)C(=O)N(C)[C@H](C(=O)N3CCCC3)CC(=O)N(C)[C@H]3CCC/C=C/c4ccc(cc4)C[C@@H](C(=O)N(C)CC(=O)N[C@@H](CCc4cc(F)c(C(F)(F)F)c(F)c4)C(=O)N2C1)N1CC/C=C\C[C@@H](C1=O)N(C)C(=O)CN(C)C(=O)[C@H]([C@@H](C)CC)NC3=O [PP2576] |  |  |  |  | A (a compound having 10 or more and less than 20 is denoted as A) | A (a compound having 10 or more and less than 20 is denoted as A) |

Second part, the molecule before the results:

| SMILES | IC50 [1] [nM] | NRAS /KRAS [2, 3] | HRAS /KRAS (HRAS wild-type protein; [4]) | NRAS /KRAS ([2]; ratio of KD value for GDP-bound NRAS wild-type protein to KD value for KRAS (SPR)) | HRAS /KRAS (HRAS wild-type protein; ratio of KD value for HRAS wild-type protein to KD value for KRAS (SPR)) | NRAS /KRAS [2, 5] | HRAS /KRAS (HRAS wild-type protein; [6]) |
| --- | --- | --- | --- | --- | --- | --- | --- |
| CC[C@H](C)[C@@H]1NC(=O)[C@H](CC(C)C)N(C)C(=O)C[C@@H](C(=O)N2CCOCC2)N(C)C(=O)[C@H](C2CCCC2)N(C)C(=O)C2(CCCC2)NC(=O)[C@@H]2CCCN2C(=O)[C@H](CCc2cc(F)c(C(F)(F)F)c(F)c2)NC(=O)CN(C)C(=O)[C@H](Cc2ccc(C(F)(F)F)cc2)N2CCCC[C@@H](C2=O)N(C)C(=O)[C@@H]2CCCN2C1=O [PP0547] | 21.5 | B (a compound having 3 or more and less than 10 is denoted as B) | B (a compound having 3 or more and less than 10 is denoted as B) |  |  |  |  |
| CCCN1C(=O)CN(C)C(=O)CN(CC)C(=O)[C@H]([C@@H](C)CC)NC(=O)[C@H](CC(C)C)N(C)C(=O)C[C@@H](C(=O)N2CCOCC2)N(C)C(=O)[C@H](C2CCCC2)N(C)C(=O)C2(CCCC2)NC(=O)[C@@H]2COCCN2C(=O)[C@H](CCc2ccc(C(F)(F)F)c(Cl)c2)NC(=O)CN(C)C(=O)[C@@H]1Cc1ccc(C(F)(F)F)cc1 [PP0299] ([NMeL]I[NEtG][Sar][NPrPhe(4-CF3)][Sar][hPhe(3-Cl-4-CF3)][Morpholine(3S-CO)][Ac5c][NMeGly(cPent)][NMeD]-Morpholide; lactam N-11) | 20.2 |  |  |  |  | B (a compound having 3 or more and less than 10 is denoted as B) | B (a compound having 3 or more and less than 10 is denoted as B) |
| CCO[C@@H]1C[C@H]2C(=O)NC3(CC(C)(C)C3)C(=O)N(C)[C@@H](C3CCCC3)C(=O)N(C)[C@H](C(=O)N3CCOCC3)CC(=O)N(C)[C@@H](COC)C(=O)N[C@@H]([C@@H](C)CC)C(=O)N(C)CC(=O)N(C)[C@H]3CCCCCN(C3=O)[C@@H](Cc3ccc(C(F)(F)F)cc3)C(=O)N(C)CC(=O)N[C@@H](CCc3cc(F)c(C(F)(F)F)c(F)c3)C(=O)N2C1 [PP0844] | 50.2 |  |  |  |  | B (a compound having 3 or more and less than 10 is denoted as B) | B (a compound having 3 or more and less than 10 is denoted as B) |
| CCCO[C@H]1CCN2C(=O)[C@H](CCc3cc(F)c(C(F)(F)F)c(F)c3)NC(=O)CN(C)C(=O)[C@H](Cc3ccc(C(F)(F)F)cc3)N3CCCC[C@@H](C3=O)N(C)C(=O)CN(C)C(=O)[C@H]([C@@H](C)CC)NC(=O)[C@H](CC(C)C)N(C)C(=O)C[C@@H](C(=O)N3CCOCC3)N(C)C(=O)[C@H](C3CCCC3)N(C)C(=O)C3(CCC3)NC(=O)[C@H]12 [PP1077] | 14.9 |  |  |  |  | B (a compound having 3 or more and less than 10 is denoted as B) | B (a compound having 3 or more and less than 10 is denoted as B) |
